Patent US5618560A, “Controlled release erodible composition” (BM Research A/S, priority 1988, dated 1997)

Experiment: clinical
Parameters: species or system patients (human)
Conditions: human, in vivo, iv, 5 mg/kg, Serum half-life
Experimental: The in vivo release of theophylline from this composition was tested in six patients, 3 males and 3 females, aged 18-42 years (mean age 30 years), weighing from 63 to 85 kg (mean weight 66 kg), all of whom were diagnosed as having bronchial asthma.
The first dose was given to the patients before breakfast (i.e. in the fasting state) as two units of the composition (340 mg theophylline) together with 100 ml of liquid. […] Following the oral dose, venous blood samples were drawn at 0, 1, 2, 3, 4, 6, 8, 10, 12, 14, 16 and 24 hours. Serum samples were drawn at 0, 15 min., 30 min., 60 min., 90 min., and 2, 3, 5, 7, 9 and 11 hours after the i.v. dose. The serum portion of the blood specimen was immediately frozen at -20° C. and kept frozen until analyzed 2 weeks later. The amount of theophylline in the serum was assayed by HPLC with an accuracy of ±5%.

## Cn1c(=O)c2[nH]cnc2n(C)c1=O [theophylline]
  half-life: 6 h
